Laboratory results published in patent US8389526B2, “3-heteroarylmethyl-imidazo[1,2-b]pyridazin-6-yl derivatives” (Novartis AG, priority 2009, dated 2013).

How the values were obtained:
[1] = target: T1, c-Met receptor tyrosine kinase, GST-c-Met(969-1390) (Homo sapiens, UniProt P08581); experiment: EPK c-Met profiling assay (LanthaScreen TR-FRET kinase assay); type: biochemical; conditions: 2 μM ATP, 0.3 nM enzyme, 60 minutes at room temperature
T1 construct: made in house
Description: A number of compounds of the present invention were assayed in an antibody based kinase phosphorylation assay as follows.
Epk c-Met Profiling Assay:
The EPK kinase assay for c-Met receptor tyrosine kinase was developed, using the purified recombinant GST-fusion protein, containing the cytoplasmic domain of the enzyme. GST-c-Met(969-1390) was purified by affinity chromatography.
The kinase assay is based on the LanthaScreen™ technology. LanthaScreen™ is the detection of Time-Resolved Fluorescence Resonance Energy Transfer (TR-FRET) using lanthanide chelates to measure interactions between various binding partners. In a TR-FRET kinase assay, a long-lifetime lanthanide donor species is conjugated to an antibody that specifically binds to a phosphorylated product of a kinase reaction that is labeled with a suitable acceptor fluorophore. This antibody-mediated interaction brings the lanthanide donor and the acceptor into proximity such that resonance energy transfer can take place, resulting in a detectible increase in the FRET signal.
The kinase reactions were performed in 384 well microtiter plates in a total reaction volume of 9.05 μL. The assay plates were prepared with 0.05 μL per well of test compound in the appropriate test concentration, as described under “preparation of compound dilutions”. The reactions were started by combining 4.5 μL of ATP solution with 4.5 μL of enzyme-substrate mix (consisting of kinase and substrate). The final concentrations in the kinase reactions were 35 mM Tris/HCl, 1 mM DTT, 0.025% Tween20, 10 μM sodium orthovanadate, 0.25% BSA, 0.6% DMSO, 10 mM MgCl2, 3 mM MnCl2, 2 μM ATP, 50 nM Fluorescein-PolyEAY, and 0.3 nM enzyme.
The reactions were incubated for 60 minutes at room temperature and stopped by adding 4.5 μL of stop buffer (50 mM EDTA, 0.04% NP40, 20 mM Tris/HCl).
Subsequently 4.5 μL of detection mix (50 mM Tris/HCl, 2 mM DTT, 0.05% Tween20, 20 μM sodium orthovanadate, 1% BSA, 1.72 μg/mL Tb-PY20 antibody) were added to the stopped reactions. After 30 minutes incubation at room temperature, the plates were measured in a BMG Pherastar fluorescence reader. The effect of compound on the enzymatic activity was in all assays obtained from the linear progress curves and determined from one reading (end point measurement).
Preparation of Compound Dilutions
Test compounds were dissolved in DMSO (10 mM) and transferred into 1.4 mL flat bottom or V-shaped Matrix tubes carrying a unique 2D matrix. The stock solutions were stored at −20° C. if not used immediately. For the test procedure the vials were defrosted and identified by a scanner whereby a working sheet was generated that guided the subsequent working steps.
Compound dilutions were made in 96 well plates. This format enabled the assay of maximally 40 individual test compounds at 8 concentrations (single points) including 4 reference compounds. The dilution protocol included the production of “pre-dilution plates”, “master plates” and “assay plates”.
Pre-dilution plates: 96 polypropylene well plates were used as pre-dilution plates. A total of 4 pre-dilution plates were prepared including 10 test compounds each on the plate positions A1-A10, one standard compound at A11 and one DMSO control at A12. All dilution steps were done on a HamiltonSTAR robot.
Master plates: 100 μL of individual compound dilutions including standard compound and controls of the 4 “pre-dilution plates” were transferred into a 384 “master plate” including the following concentrations 1′820, 564, 182, 54.6, 18.2, 5.46, 1.82 and 0.546 μM, respectively in 90% of DMSO.
Assay plates: Identical “assay plates” were then prepared by pipetting 50 nL each of compound dilutions of the “master plates” into 384-well “assay plates” by means of a HummingBird 384-channel dispenser. These plates were used directly for the assay which was performed in a total volume of 9.05 μL. […]

[2] = tested on: MET-amplified gastric cancer cell line GTL-16; experiment: GTL-16 proliferation assay (MTS); type: cell-based; conditions: Homo sapiens, GTL-16 cells, 72 h incubation
Description: (§1) C-Met Dependent Cellular Assays
(§2) A number of compounds of the present invention were assayed in a c-Met dependent proliferation and phosphorylation assay as follows.
GTL-16 proliferation assay: the MET-amplified gastric cancer cell line GTL-16 was grown under standard cell culture conditions in DMEM [Dulbecco's Modified Eagle Medium] (high glucose) supplemented with 10% heat-inactivated fetal calf serum and 2 mM L-glutamine. For proliferation assays, cells were seeded at 3000 per well in 96-well-plates. 24 h later, a 10-point dilution series of each compound (3-fold steps, ranging from […]) was prepared in DMSO. Compound were then diluted 1000-fold in growth media in two steps and added to cells in triplicates, resulting in a final volume of […] per well and maximal final compound concentrations of […]. A DMSO-only control was included. Cells were incubated for 72 h and the amount of viable cells was then measured by adding […] of MTS reagent (CellTiter 96® AQueous Non-Radioactive Cell Proliferation Assay, Promega), further incubation for 30′, and reading the optical density at 490 nm.

c-Met = target: T2, c-Met (Homo sapiens, UniProt P08581); experiment: GTL-16 c-Met autophosphorylation measured by AlphaScreen detection; type: cell-based; conditions: GTL-16 cells, 1 h incubation, AlphaScreen p-c-Met; read-out: GTL-16 IC50 c-Met phosphorylation
T2 construct: adapted to measure the phosphorylation of endogenous cellular proteins in cell lysates; endogenous in cells; host or cells: GTL-16
Description: as §1, §2
GTL-16 c-Met autophosphorylation measured by AlphaScreen® detection: the human MET-amplified gastric cancer cells GTL-16 were plated in 384-well plates at a density of 10′000 cells in 20 ul complete growth medium (DMEM high glucose supplemented with 10% (v/v) heat inactivated fetal calf serum and of 1 mM sodium pyruvate) and were incubated at […]/5% CO2/95% humidity for 20 h. The cells were washed and the 30 ul assay buffer (DMEM high glucose, 1 mM sodium pyruvate, 0.1% bovine serum albumine) was added. Compounds were diluted in 384-well compound plates to obtain 8-point serial dilutions for 40 test compounds in 90% DMSO, as well as a reference compound plus 16 high- and 16 low (inhibited) controls. These compound plates were prediluted 1:200 in assay buffer into a compound predilution plate and 10 ul of prediluted compound solution were transferred to the cell plate using a 384-well pipettor, resulting in a final DMSO concentration of 0.11%. Cells were incubated for 1 h at […]/5% CO2/95% humidity. The supernatant was removed, the cells were lysed in 25 ul of RIPA [radio immuno precipitation assay] lysis buffer supplemented with 2 mM sodium vanadate and a protease inhibitor cocktail, and cell plates were stored at −80° C.
For detection of p-c-Met, an AlphaScreen®-based assay was used. AlphaScreen® (Amplified Luminescent Proximity Homogeneous Assay, ALPHA, Perkin Elmer, U.S.A) is a non-radioactive bead-based proximity assay technology to study biomolecular interactions in a homogenous microtiter plate format. This technique has been adapted to measure the phosphorylation of endogenous cellular proteins in cell lysates by the use of specific antibody pairs against the total protein and a phospho-specific epitope. 5 ul of cell lysate was transferred to 384-well low volume Proxiplates for detection using a 384-well pipettor. First, 5 ul of a premix of an anti-c-Met antibody (0.25 ug/ml f.c.), a biotinylated PY20 antibody (phosphotyrosine antibody, 0.05 ug/ml f.c.) and AlphaScreen® Protein A-coupled acceptor beads (10 ug/ml f.c.) in RIPA buffer supplemented with 0.25% (v/w) TOP BLOCK, 2 mM sodium vanadate, and a protease inhibitor cocktail and was added, the plate was sealed, and incubated on a plate shaker for 2 hours at room temperature. Second, 2 ul of dilution buffer containing AlphaScreen® Streptavidin-coated donor beads (10 ug/ml f.c.) in RIPA buffer was added, and the plate was incubated on plate shaker as above for a further 2 hours. The plate was read on an AlphaScreen® compatible plate reader, using standard AlphaScreen® settings.

T2 sequence (P08581 25-1390): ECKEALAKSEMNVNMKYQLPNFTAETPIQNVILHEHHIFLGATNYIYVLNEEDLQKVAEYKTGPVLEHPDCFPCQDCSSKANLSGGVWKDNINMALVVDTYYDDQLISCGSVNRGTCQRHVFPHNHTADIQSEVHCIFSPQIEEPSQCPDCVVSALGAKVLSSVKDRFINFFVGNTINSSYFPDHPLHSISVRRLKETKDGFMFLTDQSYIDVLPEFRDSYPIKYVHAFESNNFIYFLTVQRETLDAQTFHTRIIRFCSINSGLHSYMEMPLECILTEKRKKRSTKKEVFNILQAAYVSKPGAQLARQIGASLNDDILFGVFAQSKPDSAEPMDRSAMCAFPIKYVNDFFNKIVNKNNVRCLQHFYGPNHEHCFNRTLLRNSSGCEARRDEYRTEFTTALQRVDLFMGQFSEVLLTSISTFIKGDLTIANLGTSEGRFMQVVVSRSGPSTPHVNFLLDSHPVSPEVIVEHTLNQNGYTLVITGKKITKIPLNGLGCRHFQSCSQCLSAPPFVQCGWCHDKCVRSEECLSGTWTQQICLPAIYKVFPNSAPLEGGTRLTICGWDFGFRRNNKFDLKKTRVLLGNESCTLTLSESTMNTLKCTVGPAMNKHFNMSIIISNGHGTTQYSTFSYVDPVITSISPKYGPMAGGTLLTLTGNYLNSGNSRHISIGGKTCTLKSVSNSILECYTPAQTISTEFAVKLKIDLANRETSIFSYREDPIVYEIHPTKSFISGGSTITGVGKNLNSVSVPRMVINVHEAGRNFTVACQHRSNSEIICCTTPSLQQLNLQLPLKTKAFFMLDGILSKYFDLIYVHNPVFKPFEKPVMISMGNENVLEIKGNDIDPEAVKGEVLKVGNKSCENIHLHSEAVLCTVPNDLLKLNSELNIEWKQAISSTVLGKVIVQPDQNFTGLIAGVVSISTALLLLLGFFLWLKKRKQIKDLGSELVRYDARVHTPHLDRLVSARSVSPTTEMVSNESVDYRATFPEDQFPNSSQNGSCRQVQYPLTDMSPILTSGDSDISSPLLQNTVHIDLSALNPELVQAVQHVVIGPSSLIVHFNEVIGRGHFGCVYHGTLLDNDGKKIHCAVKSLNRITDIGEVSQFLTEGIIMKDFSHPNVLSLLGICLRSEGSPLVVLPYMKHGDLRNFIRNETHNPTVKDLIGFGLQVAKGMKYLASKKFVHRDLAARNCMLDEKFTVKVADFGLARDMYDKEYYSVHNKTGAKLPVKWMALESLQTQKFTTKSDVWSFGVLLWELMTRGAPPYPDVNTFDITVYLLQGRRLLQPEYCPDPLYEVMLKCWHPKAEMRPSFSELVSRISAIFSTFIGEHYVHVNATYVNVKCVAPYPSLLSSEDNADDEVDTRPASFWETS
T1 sequence (P08581 969-1390): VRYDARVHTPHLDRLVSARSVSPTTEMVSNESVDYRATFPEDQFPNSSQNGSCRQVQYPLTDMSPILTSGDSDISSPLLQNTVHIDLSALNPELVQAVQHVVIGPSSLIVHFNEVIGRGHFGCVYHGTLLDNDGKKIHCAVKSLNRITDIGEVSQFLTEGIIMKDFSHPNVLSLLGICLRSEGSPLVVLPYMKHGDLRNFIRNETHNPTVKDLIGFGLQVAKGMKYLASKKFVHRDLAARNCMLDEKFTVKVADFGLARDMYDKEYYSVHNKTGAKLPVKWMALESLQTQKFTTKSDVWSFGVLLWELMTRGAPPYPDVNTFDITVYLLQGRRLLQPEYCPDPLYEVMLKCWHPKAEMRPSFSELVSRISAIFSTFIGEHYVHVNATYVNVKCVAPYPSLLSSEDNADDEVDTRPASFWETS

CC(c1c(F)cc2ncccc2c1F)c1cnc2ccc(N3CCN(C)C(=O)C3)nn12 (racemic) [Example 1, (rac)-4-{3-[1-(5,7-Difluoro-quinolin-6-yl)-ethyl]-imidazo[1,2-b]pyridazin-6-yl}-1-methyl-piperazin-2-one]
IC50 [1]: 8.6 nM
IC50 [2]: 9.1 nM
IC50 (c-Met): < 3 nM

CC(=O)N1CCN(c2ccc3ncc([C@@H](C)c4cc5cnn(C)c5cc4F)n3n2)CC1 [Example 29, 1-(4-{3-[(S)-1-(6-Fluoro-1-methyl-1H-indazol-5-yl)-ethyl]-imidazo[1,2-b]pyridazin-6-yl}-piperazin-1-yl)-ethanone]
IC50 [1]: 55 nM
IC50 [2]: 136 nM
IC50 (c-Met): 25 nM

COC(=O)N1CCN(c2ccc3ncc(C(C)c4c(F)cc5ncccc5c4F)n3n2)CC1 (racemic) [Example 14, (rac)-4-{3-[1-(5,7-Difluoro-quinolin-6-yl)-ethyl]-imidazo[1,2-b]pyridazin-6-yl}-piperazine-1-carboxylic acid methyl ester]
IC50 [1]: 7.9 nM

CC1C(=O)NCCN1c1ccc2ncc([C@@H](C)c3c(F)cc4ncccc4c3F)n2n1 (mixture of isomers) [Example 58, (rac)-4-{3-[(S)-1-(5,7-Difluoro-quinolin-6-yl)-ethyl]-imidazo[1,2-b]pyridazin-6-yl}-3-methyl-piperazin-2-one]
IC50 [1]: 2.7 nM
IC50 [2]: 7.1 nM
IC50 (c-Met): 3.7 nM

CC(=O)N1CCN(c2ccc3ncc(C(C)c4c(F)cc5ncccc5c4F)n3n2)CC1 (racemic) [Example 10, (rac)-1-(4-{3-[1-(5,7-Difluoro-quinolin-6-yl)-ethyl]-imidazo[1,2-b]pyridazin-6-yl}-piperazin-1-yl)ethanone]
IC50 [1]: < 3 nM
IC50 [2]: 14.6 nM
IC50 (c-Met): < 3 nM

CC(c1c(F)cc2ncccc2c1F)c1cnc2ccc(N3CCNC(=O)C3C)nn12 (racemic) [Example 18, (rac)-4-{3-[1-(5,7-Difluoro-quinolin-6-yl)-ethyl]-imidazo[1,2-b]pyridazin-6-yl}-3-methyl-piperazin-2-one]
IC50 [1]: 8.3 nM
IC50 [2]: 9.2 nM

Cn1ncc2c(F)c(Cc3cnc4ccc(N5CCNC(=O)C5)nn34)c(F)cc21 [Example 54, 4-[3-(4,6-Difluoro-1-methyl-1H-indazol-5-ylmethyl)-imidazo[1,2-b]pyridazin-6-yl]-piperazin-2-one]
IC50 [1]: 20 nM
IC50 [2]: 36 nM
IC50 (c-Met): < 3 nM

O=C1CN(c2ccc3ncc(Cc4cc5cccnc5cc4F)n3n2)CCN1 [Example 38, 4-[3-(7-Fluoro-quinolin-6-ylmethyl)-imidazo[1,2-b]pyridazin-6-yl]-piperazin-2-one]
IC50 [1]: 31 nM

CC(=O)N1CCN(c2ccc3ncc(C(C)c4ccc5ncccc5c4F)n3n2)CC1 (racemic) [Example 48, (rac)-1-(4-{3-[1-(5-Fluoro-quinolin-6-yl)-ethyl]-imidazo[1,2-b]pyridazin-6-yl}-piperazin-1-yl)ethanone]
IC50 [1]: 140 nM
IC50 [2]: 168 nM
IC50 (c-Met): 35 nM

CC(=O)N1CCN(c2ccc3ncc(Cc4c(F)cc5c(cnn5C)c4F)n3n2)CC1 [Example 55, 1-(4-(3-((4,6-difluoro-1-methyl-1H-indazol-5-yl)methyl)imidazo[1,2-b]pyridazin-6-yl)piperazin-1-yl)ethanone]
IC50 [1]: 29 nM

CC(=O)N1CCN(c2ccc3ncc(Cc4cc5cccnc5cc4F)n3n2)CC1 [Example 39, 1-{4-[3-(7-Fluoro-quinolin-6-ylmethyl)-imidazo[1,2-b]pyridazin-6-yl]-piperazin-1-yl}-ethanone]
IC50 [1]: 84 nM

CC(c1c(F)cc2ncccc2c1F)c1cnc2ccc(N3CCN(C=O)CC3)nn12 (racemic) [Example 12, (rac)-4-{3-[1-(5,7-Difluoro-quinolin-6-yl)-ethyl]-imidazo[1,2-b]pyridazin-6-yl}-piperazine-1-carbaldehyde]
IC50 [1]: 8 nM

C[C@H](c1c(F)cc2ncccc2c1F)c1cnc2ccc(N3CCNC(=O)C3)nn12 (single isomer, unassigned) [Example 4]
IC50 [1]: 680 nM

CC(=O)N1CCN(c2ccc3ncc(Cc4ccc5ncccc5c4F)n3n2)CC1 [Example 45, 1-{4-[3-(5-Fluoro-quinolin-6-ylmethyl)-imidazo[1,2-b]pyridazin-6-yl]-piperazin-1-yl}-ethanone]
IC50 [1]: 170 nM

CN1CCN(c2ccc3ncc(Cc4ccc5ncccc5c4F)n3n2)CC1=O [Example 43, 4-[3-(5-Fluoro-quinolin-6-ylmethyl)-imidazo[1,2-b]pyridazin-6-yl]-1-methyl-piperazin-2-one]
IC50 [1]: 84 nM

CN1CCN(c2ccc3ncc(Cc4cc5cccnc5cc4F)n3n2)CC1=O [Example 37, 4-[3-(7-Fluoro-quinolin-6-ylmethyl)-imidazo[1,2-b]pyridazin-6-yl]-1-methyl-piperazin-2-one]
IC50 [1]: 58 nM
